Results reported in ChEMBL document CHEMBL5365466, “Discovery of Triazolyl Derivatives of Cucurbitacin B Targeting IGF2BP1 against Non-Small Cell Lung Cancer” (J Med Chem, 2023).
Active and inactive are the calls of the source. No cut-off for these calls is given here.

How the values were obtained:
A549 [1] = experiment: Antitumor activity against human A549 cells xenografted in BALB/c mouse assessed as increase in apoptosis at 0.5 mg/kg,ip administrated for 21 days by TUNEL staining based analysis; assay type: functional, organism-based; conditions: time 21.0 day
[2] = biological target: T1, Insulin-like growth factor 2 mRNA-binding protein 1 (Homo sapiens, UniProt Q9NZI8); experiment: Binding affinity to human recombinant IGF2BP1 assessed as dissociation constant by microscale thermophoresis analysis
T1 sequence (Q9NZI8 whole entry): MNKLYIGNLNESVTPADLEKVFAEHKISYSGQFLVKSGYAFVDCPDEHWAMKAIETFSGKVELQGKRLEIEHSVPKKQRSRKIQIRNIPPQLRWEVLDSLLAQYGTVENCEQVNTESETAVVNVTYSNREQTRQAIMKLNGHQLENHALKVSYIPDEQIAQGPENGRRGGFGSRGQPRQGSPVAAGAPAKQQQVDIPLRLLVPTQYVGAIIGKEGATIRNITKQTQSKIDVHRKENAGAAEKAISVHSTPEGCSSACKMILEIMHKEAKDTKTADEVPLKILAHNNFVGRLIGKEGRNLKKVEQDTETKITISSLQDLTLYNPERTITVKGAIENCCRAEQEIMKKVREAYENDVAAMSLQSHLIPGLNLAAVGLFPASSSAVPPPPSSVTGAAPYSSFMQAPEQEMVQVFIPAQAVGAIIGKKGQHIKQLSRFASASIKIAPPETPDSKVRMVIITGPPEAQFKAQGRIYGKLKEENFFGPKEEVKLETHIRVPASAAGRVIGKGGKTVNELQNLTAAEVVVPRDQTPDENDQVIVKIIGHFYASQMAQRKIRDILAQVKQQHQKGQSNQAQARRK

A549 [3] = experiment: Antitumor activity against human A549 cells xenografted in BALB/c mouse assessed as tumor growth inhibition at 0.5 mg/kg,ip administrated for 21 days; assay type: functional; conditions: A549, 504 h, time 21 day, read-out: TGI
HeLa = experiment: Antiproliferative activity against human HeLa cells assessed as cell growth inhibition incubated for 72 hrs by SRB assay; assay type: functional, cell-based
PANC-1 = experiment: Antiproliferative activity against human PANC-1 cells assessed as cell growth inhibition incubated for 72 hrs by SRB assay; assay type: functional, cell-based; conditions: PANC-1, 72 h
A549 [4] = experiment: Induction of autophagy in human A549 cells assessed as upregulation of LC3II/LC3I ratio at 0.1 to 0.5 uM incubated for 48 hrs by Western blotting analysis; assay type: functional, cell-based; conditions: dose 0.1-0.5 µM
A549 [5] = experiment: Induction of apoptosis in human A549 cells assessed as downregulation of c-Myc expression incubated for 48 hrs by Western blotting analysis; assay type: functional, cell-based
[6] = biological target: T1, Insulin-like growth factor 2 mRNA-binding protein 1; experiment: Binding affinity to IGF2BP1 in human A549 cells assessed as protein stabilization at 1 uM at 49 degreeC incubated for 2 hrs by CETSA; assay type: cell-based
A549 [7] = experiment: Induction of cell cycle arrest in human A549 cells assessed as accumulation of cells at S phase at 0.1 uM incubated for 24 hrs by PI staining based flow cytometric analysis (reference value: 23 %); assay type: functional
CFPAC-1 = experiment: Antiproliferative activity against human CFPAC-1 cells assessed as cell growth inhibition incubated for 72 hrs by SRB assay; assay type: functional, cell-based; conditions: CFPAC-1, 72 h
MCF7 = experiment: Antiproliferative activity against human MCF7 cells assessed as cell growth inhibition incubated for 72 hrs by SRB assay; assay type: functional, cell-based; conditions: MCF7, 72 h
A549 [8] = experiment: Induction of cell cycle arrest in human A549 cells assessed as accumulation of cells at S phase at 0.5 uM incubated for 24 hrs by PI staining based flow cytometric analysis (reference value: 23 %); assay type: functional
A549 [9] = experiment: Antitumor activity against human A549 cells xenografted in BALB/c mouse assessed as increase in nuclear pyknosis at 0.5 mg/kg,ip administrated for 21 days by hematoxylin and eosin staining based microscopic analysis; assay type: functional, organism-based; conditions: time 21.0 day
A549 [10] = experiment: Antiproliferative activity against wild type human A549 cells assessed as cell growth inhibition incubated for 72 hrs by SRB assay; assay type: functional, cell-based; conditions: A549, 72 h
A549 [11] = experiment: Induction of cell cycle arrest in human A549 cells assessed as accumulation of cells at G2 phase at 0.5 uM incubated for 24 hrs by PI staining based flow cytometric analysis (reference value: 9.26 %); assay type: functional
[12] = Acute toxicity in BALB/c mouse xenografted with human A549 cells assessed as change in body weight at 0.5 mg/kg,ip administrated for 21 days; assay type: organism-based; conditions: in vivo, 504 h, time 21 day
[13] = Selectivity index, ratio of IC50 for antiproliferative activity against human L02 cells to IC50 for antiproliferative activity against human A549 cells; assay type: toxicity, cell-based; conditions: L02 cells versus A549 cells, read-out: Ratio IC50
[14] = Antiproliferative activity against human L02 cells assessed as cell growth inhibition at 0.1 uM incubated for 72 hrs by SRB assay; assay type: toxicity, cell-based
A549 [15] = experiment: Induction of apoptosis in human A549 cells at 0.5 uM incubated for 48 hrs by Annexin V-FITC/PI staining based flow cytometric analysis; assay type: functional
[16] = Antiproliferative activity against human L02 cells assessed as cell growth inhibition at 1 uM incubated for 72 hrs by SRB assay; assay type: toxicity, cell-based
[17] = Selectivity index, ratio of IC50 for antiproliferative activity against human L02 cells to IC50 for antiproliferative activity against human HCT-116 cells; assay type: toxicity, cell-based; conditions: L02 cells versus HCT-116 cells, read-out: Ratio IC50
A549 [18] = experiment: Induction of autophagy in human A549 cells assessed as upregulation of p62 protein expression at 0.1 to 0.5 uM incubated for 48 hrs by Western blotting analysis; assay type: functional, cell-based; conditions: dose 0.1-0.5 µM
[19] = Selectivity index, ratio of IC50 for antiproliferative activity against human L02 cells to IC50 for antiproliferative activity against human BXPC-3 cells; assay type: toxicity, cell-based; conditions: L02 cells versus BXPC-3 cells, read-out: Ratio IC50
[20] = Selectivity index, ratio of IC50 for antiproliferative activity against human L02 cells to IC50 for antiproliferative activity against human HeLa cells; assay type: toxicity, cell-based; conditions: L02 cells versus HeLa cells, read-out: Ratio IC50
A549 [21] = experiment: Induction of apoptosis in human A549 cells incubated for 48 hrs by Annexin V-FITC/PI staining based flow cytometric analysis; assay type: functional, cell-based

In the case of `CC(=O)OC(C)(C)/C=C/C(=O)[C@](C)(O)[C@H]1[C@H](O)C[C@@]2(C)[C@@H]3CC=C4[C@@H](C[C@H](OC(=O)Cn5ncn(-c6ccc(F)cc6)c5=O)C(=O)C4(C)C)[C@]3(C)C(=O)C[C@]12C`, the Activity (A549 [1]) is reported as “Active”, the Kd [2] is reported as 10.9 nM and the inhibition in vivo at 0.5 mg/kg (A549 [3]) is reported as 80%. The IC50 (HeLa) was 15 nM, the IC50 (PANC-1) was 88 nM and the Activity (A549 [4]) was “Active”. For the same compound, the Activity (A549 [5]) was “Dose-Dependent Effect”, the Activity [6] was “Active” and the Activity (A549 [7]) was 31.1%. For the same compound, the IC50 (CFPAC-1) was 37 nM, the IC50 (MCF7) was 56 nM and the Activity (A549 [8]) was 8.96%. The Activity (A549 [9]) was “Active”, the IC50 (A549 [10]) was 5 nM and the Activity (A549 [11]) was 37.3%. For the same compound, the Activity [12] was “Non-Toxic”, the selectivity ratio [13] was 11.1 and the inhibition at 72 h, 0.1 µM [14] was 50.5%. For the same compound, the Activity (A549 [15]) was 36.7%, the inhibition at 72 h, 1 µM [16] was 68.9% and the selectivity ratio [17] was 2.94. The Activity (A549 [18]) was “Dose-Dependent Effect”, the selectivity ratio [19] was 5.56 and the selectivity ratio [20] was 6.67. For the same compound, the Activity (A549 [21]) was “Dose-Dependent Effect”.
